Source: the NIST ThermoML archive (doi:10.1021/je0501991)
± gives the expanded uncertainty stated by the source. Each block holds one compound with its values, some of them ahead of it.

Key:
[1] = 101.33 kPa, Liquid
[2] = refractive index (Na D-line) (dimensionless); conditions: 101.33 kPa, Liquid, Standard Abbe refractometry
[3] = molar heat capacity at constant pressure; xn = mol fraction of the nth substance listed; conditions: Liquid, x1 = 1

SMILES: OCCCc1ccccc1 [3-phenyl-1-propanol]
viscosity ([1]; 298.15 K): 10.13 ± 0.17 mPa·s | mass density ([1]; 308.15 K): 991.17 ± 0.53 kg/m3 | refractive index ([2]; 308.15 K): 1.521 ± 0.001

SMILES: OCc1ccccc1 [benzenemethanol]
mass density ([1]; 298.15 K): 1041.65 ± 0.27 kg/m3 | viscosity ([1]; 298.15 K): 5.211 ± 0.076 mPa·s | mass density ([1]; 308.15 K): 1033.66 ± 0.25 kg/m3 | viscosity ([1]; 308.15 K): 4.125 ± 0.062 mPa·s | refractive index ([2]; 298.15 K): 1.5377 ± 0.0005 | refractive index ([2]; 308.15 K): 1.535 ± 0.0005

SMILES: C[S+](C)[O-] [dimethyl sulfoxide]
viscosity ([1]; 298.15 K, Capillary tube (Ostwald / Ubbelohde) method): 1.989 ± 0.023 mPa·s | mass density ([1]; 298.15 K, Vibrating tube method): 1095.68 ± 0.09 kg/m3 | viscosity ([1]; 308.15 K, Capillary tube (Ostwald / Ubbelohde) method): 1.645 ± 0.019 mPa·s | mass density ([1]; 308.15 K, Vibrating tube method): 1085.31 ± 0.09 kg/m3 | refractive index ([2]; 298.15 K): 1.4775 ± 0.0004 | refractive index ([2]; 308.15 K): 1.473 ± 0.0004

SMILES: C[S+](C)[O-] [dimethyl sulfoxide] + OCCc1ccccc1
molar heat capacity at constant pressure ([3]; 298.15 K, 101.33 kPa): 142.7 ± 11 J/K/mol | molar heat capacity at constant pressure ([3]; 308.15 K, 101.33 kPa): 143.5 ± 12 J/K/mol | molar heat capacity at constant pressure ([3]; 318.15 K, 101.33 kPa): 144.6 ± 12 J/K/mol

More lines, now with the values ahead:

mass density ([1]; 308.15 K): 1008.79 ± 0.54 kg/m3 | viscosity ([1]; 308.15 K): 7.438 ± 0.12 mPa·s | refractive index ([2]; 308.15 K): 1.5267 ± 0.0008
SMILES: OCCc1ccccc1 [2-phenylethanol]

molar heat capacity at constant pressure ([3]; 298.15 K, 101 kPa): 142.7 ± 11 J/K/mol | molar heat capacity at constant pressure ([3]; 308.15 K, 101 kPa): 143.5 ± 12 J/K/mol | molar heat capacity at constant pressure ([3]; 318.15 K, 101 kPa): 144.6 ± 12 J/K/mol
SMILES: C[S+](C)[O-] [dimethyl sulfoxide] + OCCCc1ccccc1

molar heat capacity at constant pressure ([3]; 298.15 K, 101.33 kPa): 142.7 ± 11 J/K/mol | molar heat capacity at constant pressure ([3]; 308.15 K, 101.33 kPa): 143.5 ± 12 J/K/mol | molar heat capacity at constant pressure ([3]; 318.15 K, 101.33 kPa): 144.6 ± 12 J/K/mol
SMILES: C[S+](C)[O-] [dimethyl sulfoxide] + OCc1ccccc1
